The test system of data set [1] is EBOV. Particulars: cited from earlier work.
The conditions of data set [2]: mouse, microsomes.
The conditions of data set [3]: guinea pig, microsomes.
The conditions of data set [4]: microsomes.
The conditions of data set [5]: human, microsomes.
Data set [6] is described as follows: in vitro. Conditions: mouse, microsomes.
Data set [7] can be described thus: in vitro. Particulars: guinea pig, microsomes.
Data set [8] in a line: in vitro. Particulars: human, microsomes.
Data set [9] deals with EBOV. Particulars: mouse, in vivo; cited from earlier work.
Another data set deals with Sudan virus. Particulars: guinea pig, in vivo, sc; cited from earlier work.
Data set [10] deals with Marburg virus/H.sapiens-tc/AGO/2005/Ang-1379v (MARV/Ang). Briefly: organism not typed. In kind it is cell-based. Particulars: HeLa.
Data set [11] has as its system Marburg virus/H.sapiens-tc/KEN/1980/Mt. Elgon-Musoke (MARV/Mus). Nature of the data set: organism not typed. Format: cell-based. Conditions: HeLa.
The subject of data set [12] is EBOV (Kikwit, Mayinga and Makona). Briefly: microbe, parasite or virus in culture. In kind it is cell-based, Ebola virus. Conditions: Zaire ebolavirus, HeLa, read-out: IC50 range against three strains of EBOV.
Another data set relates to MARV (Musoke and Angola). Nature of the data set: organism not typed. Particulars: HeLa, read-out: IC50 range against two strains of MARV. Format: cell-based, Marburg virus.
The test system of data set [13] is VSV pseudotyped with EBOV glycoprotein. Format: cell-based.
In a further data set the test system is MARV Musoke strain. Format: cell-based, Marburg virus.
The conditions of data set [14]: both, Hartley, guinea pig, in vivo.
For data set [15] the following is noted: male, Hartley, guinea pig, in vivo.
The next data set is described as follows: in vivo. Particulars: male, Hartley, guinea pig, ip, 125 mg/kg.
Data set [16] is described as follows: in vitro. Conditions: human.
For data set [17] the following is noted: human, in vivo; cited from earlier work.
The conditions of data set [18]: pH 7.4.
The subject of data set [19] is EBOV. Particulars: in vivo, iv; cited from earlier work.
The test system of data set [20] is EBOV. Conditions: human, in vivo; cited from earlier work.

Where two headings read alike, the source gives them in different places.

As to 17-DMAG, in the data set with EBOV [1], the “activity in the guinea pig in vivo model” value is “inactive”.

Turning to `Nc1nc(Nc2ccc3c(c2)CC[C@@H](N2CCCC2)CC3)nn1-c1cc2c(nn1)-c1ccccc1CCC2` [BGB324], the “activity in the guinea pig in vivo model” value with EBOV [1] is “inactive”.

Take `CCN(CC)CCCC(C)Nc1ccnc2cc(Cl)ccc12` (centres unmarked) [Chloroquine]: the Clint in data set [2] was 29.3 µL·min/mg; in data set [3], 10.5 µL·min/mg; in data set [4], 13.0 µL·min/mg; in data set [5], 6.9 µL·min/mg. Moreover, in the data set with EBOV [1], the “activity in the guinea pig in vivo model” value was “inactive”. For the same molecule, the half-life in the data set “in vitro [6]” turned out to be 0.788 h; in the data set “in vitro [7]” it was 2.21 h; in “in vitro [8]”, 3.36 h.

As to `NC(=O)c1nc(F)c[nH]c1=O` [Favipiravir], the protection in the data set with EBOV [9] is given as 83%. Moreover, in the data set with Sudan virus, the survival rates is listed as 83–100%.

On to `COc1ccc2nc3cc(Cl)ccc3c(Nc3cc(CN4CCCC4)c(O)c(CN4CCCC4)c3)c2n1` [Pyronaridine, 4-[(7-Chloro-2-methoxybenzo[b][1,5]naphthyridin-10-yl)amino]-2,6-bis(1-pyrrolidinylmethyl)phenol phosphate (1:4)], for which the IC50 in [10] is 2720 ± 970 nM; in data set [11], 1010 ± 110 nM; in data set [12], 820 to 1300 nM; with MARV (Musoke and Angola), 1010 to 2720 nM. The “Effect on entry stage of infection in pseudotype assay” value (from here on “Effect on entry stage of infection”) in data set [13] is on record as “block the entry stage of infection”. The “Activity against MARV Musoke strain” value in the data set on MARV Musoke strain is recorded as “active”. Moreover, the Clint in [2] is less than 7.4 µL·min/mg; in data set [3], 21.0 µL·min/mg; in data set [4] it was 15.5 µL·min/mg; in data set [5], 11.4 µL·min/mg. Further, the “guinea pigs found dead within 30 mins post injection” value in data set [14] is listed as 4 of 6. Besides, in data set [14], the “guinea pigs having any abnormal clinical observations” value is on record as 1 of 6. For the same molecule, the “Guinea pigs found dead on days 14 and 17 post dose” value in [15] was 2 of 3. The molecule also had a T1/2 in data set [15] (po, 600 mg/kg) of 90.5 h. In addition, the AUC(0-inf) in the data set “in vivo” amounted to 17400 ng·h/mL. Further, the exposure AUC(0-t) in “in vivo” stood at 16600 ng·h/mL. The molecule further displayed a Cmax in the data set “in vivo” of 523 ng/mL. The half-life in “in vivo” (T1/2) was 72.7 h; in “in vitro [6]”, greater than 3.1 h; in “in vitro [7]”, 1.1 h; in the data set “in vitro [8]” it was 2.04 h. Further, the CC50 in “in vitro [16]” was found to be 4110 ± 500 nM. Further, in data set [17], the t1/2 is 195 to 251 h.

Consider `CCN(CC)CCCC(C)Nc1c2ccc(Cl)cc2nc2ccc(OC)cc12` (centres unmarked) [Quinacrine], for which the IC50 in [10] turned out to be 2940 ± 760 nM; in [11] it was 1570 ± 170 nM. In addition, the “Effect on entry stage of infection” value in data set [13] was “block the entry stage of infection”. In addition, in the data set with MARV Musoke strain, the “Activity against MARV Musoke strain” value is recorded as “active”. The Clint in data set [2] worked out at 110.0 µL·min/mg; in data set [3], 81.3 µL·min/mg; in data set [4] it was 137.4 µL·min/mg; in data set [5], 50.5 µL·min/mg. Also, in data set [18], the “O-demethylation, higher in guinea pig” value is 2–3 times. This molecule also displayed a CC50 in “in vitro [16]” of 8620 ± 20 nM. In addition, the half-life in “in vitro [6]” was 0.21 h; in “in vitro [7]” it was 0.285 h; in “in vitro [8]”, 0.458 h.

On to `CCN(CC)CCOc1ccc2c(c1)C(=O)c1cc(OCCN(CC)CC)ccc1-2` [Tilorone], for which the results for the IC50 in data set [10] and in data set [11] were 4510 ± 1930 nM and 2050 ± 280 nM, respectively. For the same molecule, the “Effect on entry stage of infection” value in [13] is on record as “block the entry stage of infection”. In addition, the “Activity against MARV Musoke strain” value with MARV Musoke strain was “active”. Also, the Clint in data set [2] was determined as 13.5 µL·min/mg; in data set [3] it was 113.7 µL·min/mg; in data set [4] it was 14.7 µL·min/mg; in data set [5] it was 10.9 µL·min/mg. In “in vitro [16]”, this molecule returned a CC50 of 18000 ± 3040 nM. The figures for the half-life in the data set “in vitro [6]”, in “in vitro [7]” and in “in vitro [8]” were 1.71 h, 0.203 h and 2.12 h, respectively.

With `CCCCc1oc2ccccc2c1C(=O)c1cc(I)c(OCCN(CC)CC)c(I)c1` [amiodarone], the “activity in the guinea pig in vivo model” value in the data set with EBOV [1] was “inactive”.

For `CC[C@H]1OC(=O)[C@H](C)[C@@H](O[C@H]2C[C@@](C)(OC)[C@@H](O)[C@H](C)O2)[C@H](C)[C@@H](O[C@@H]2O[C@H](C)C[C@H](N(C)C)[C@H]2O)[C@](C)(O)C[C@@H](C)CN(C)[C@H](C)[C@@H](O)[C@]1(C)O` [azithromycin], the “activity in the guinea pig in vivo model” value with EBOV [1] is “inactive”.

On to `CCC(CC)COC(=O)[C@H](C)N[P@](=O)(OC[C@H]1O[C@@](C#N)(c2ccc3c(N)ncnn23)[C@H](O)[C@@H]1O)Oc1ccccc1` [remdesivir], for which the survival in the data set with EBOV [19] is reported as 100%. For the same molecule, the overall survival rate in the data set with EBOV [20] is reported as 47%.

B1: mAb114: a monoclonal antibody (antibody, chains of the INN, looked up, V domains shown)
VH: EVQLVESGGGLIQPGGSLRLSCAASGFALRMYDMHWVRQTIDKRLEWVSAVGPSGDTTYADSVKGRFAVSRENAKNSLSLQMNSLTAGDTAIYYCVRSDRGVAGLFDSWGQGILVTVSS
VL: DIQMTQSPSSLSASVGDRITITCRASQAFDNYVAWYQQRPGKVPKLLISAASALHAGVPSRFSGSGSGTHFTLTISSLQPEDVATYYCQNYNSAPLTFGGGTKVEIK
With B1, the overall survival rate in the data set on EBOV [20] is 66%.

Values taken from PMC8194506 (Antiviral research, 2020).
